The values below come from PMC4552634, “A New Set of Chemical Starting Points with Plasmodium falciparum Transmission-Blocking Potential for Antimalarial Drug Discovery” (PLoS ONE, 2015).

Where two headings read alike, the source gives them in different places. A value given as a limit tells only on which side of the number the result lay.

Data set [1] concerns P. falciparum stage V gametocytes. The experiment in a line: Gametocytocidal ATP bioluminescence assay (single point 5 μM and 1 μM, dose-response). Type of data set: cell-based, Plasmodium falciparum. To be noted: for Ratio IC50 HepG2/IC50 P. falciparum: IC50 HepG2 divided by IC50 P. falciparum gametocytes.
Procedure: Purified stage IV-V gametocytes were obtained as previously described [10]. Single point ATP bioluminescence assay and dose–response of positive hits was determined in accordance with the previously published protocol [10].
A further data set relates to HepG2 cells. The data set can be described thus: Cytotoxicity in HepG2 cells (intracellular ATP, ATPlite, 48 h). The conditions noted are these: for Ratio IC50 HepG2/IC50 P. falciparum: IC50 HepG2 divided by IC50 P. falciparum gametocytes. It counts as cell-based, human. On the technique in general: Cellular ATP, detected with luciferase, serves as a proxy for viable cell number.

In data set [2] the test system is P. falciparum asexual stages. To be noted: TCAMS data, cited from earlier work.
In data set [3] the test system is P. falciparum stage V gametocytes. The experiment in a line: microbe, parasite or virus in culture. On the set-up: BacTiter-Glo ATP luminescence viability of stage V gametocytes, 11-point dose-response IC50. To be noted: Plasmodium falciparum, 48 h; sheet CSAanalogstable. The protocol: Once purified, gametocytes were counted using a Neubauer chamber, and the density was adjusted to 2.5 x 10^5 gametocytes/mL. Fifty μL of the gametocyte suspension (1.25 x 10^4 gametocytes) were added to each well of the 384-well plate containing the compounds, using a Multidrop combi (Thermo Electron Corporation). Plates were shaken for 5 sec to homogenize and then incubated at 37°C for 48 h in an atmosphere of 5% CO2, 5% O2, 90% N2. The ATP level of each well was determined using the BacTiter-Glo reagent (Promega) according to the recommendations of the manufacturer. The BacTiter-Glo assay generates a ‘glow-type’ luminescent signal produced by the luciferase reaction, which consists of mono-oxygenation of luciferin catalyzed by luciferase in the presence of Mg^2+, ATP and molecular oxygen. The luminescence was measured using a plate reader (Victor V, Perkin Elmer). […] The background value was subtracted from every other value of the assay prior to further calculation. The average of 16 replicates of vehicle control (0.5% or 0.1% DMSO) represents 100% of signal. Related to this value, each test concentration was calculated as percentage of control. […] However, there was no significant correlation between compound IC50 values obtained against gametocytes and the inhibition of growth of P. falciparum asexual forms as previously determined for TCAMS [6] […]

Data set [4] can be described thus: Cytotoxicity in HepG2 cells (intracellular ATP, ATPlite, 48 h). It counts as cell-based, human. To be noted: human, HepG2 cells.
Data set [5] deals with P. falciparum stage V gametocytes. The arrangement: BacTiter-Glo ATP luminescence viability of purified stage V gametocytes in 384-well plates, per cent inhibition versus DMSO. The conditions noted are these: 48 h, 5 µM; inhibitor.
Data set [6] has as its system luciferase reaction (BacTiter-Glo). The experiment in a line: Interference assay (inhibition of the BacTiter-Glo luciferase reaction). It counts as biochemical. The arrangement: concentration or dose not given beside the values. The conditions noted are these: ATP interference assay. The protocol:
To discard possible false-positive results, we performed an interference assay in parallel. […] […]. The ATP solution was made by dissolving ATP powder (ATP standard from the ATPlite 1 step assay kit, reference 6016731, Perkin Elmer) in culture medium. The positive control used was the Luciferase Inhibitor I Calbiochem (Merck, 119113) at 100 μM.

Data set [7] deals with KCa2.2, a calcium-dependent K+ channel. On the set-up: method as in TCAMS annotation. The conditions noted are these: target annotation in TCAMS; ref TCAMS annotation; cited from earlier work.
Another data set concerns adenosine A3 receptor. On the set-up: method as in TCAMS annotation. To be noted: target annotation in TCAMS; ref TCAMS annotation; cited from earlier work.
Setting [8] is: P. falciparum asexual stages, read-out: IC50 (µM) Pf asexual stages.
The mark [9] stands for this setting: asexual stages, read-out: IC50 asexual.
Setting [10] is: Plasmodium falciparum, P. falciparum gametocytes, average, read-out: IC50 Pf Gametocytes average, IC50 (µM) average.
[11] abbreviates: IC50 per ratio column head, unit inferred, read-out: Cytotoxicity in HepG2.
The mark [12] stands for this setting: Plasmodium falciparum, sexual stages (gametocytes), dose-response, read-out: IC50 sexual.

As a reminder, the % Inhibition is the change of the read-out against control, counted positive when it falls.

With `CCC1=C(C[C@H]2NCCc3cc(OC)c(OC)cc32)C[C@H]2c3cc(OC)c(OC)cc3CCN2C1` [TCMDC-131825], the “Ratio IC50 HepG2/IC50 P. falciparum” value (in data set [1]; in the data set with HepG2 cells) was over 83 each time. In addition, the IC50 was 0.3 µM in data set [1] (P. falciparum gametocytes, average, read-out: IC50 Pf Gametocytes average, IC50 (µM) average); over 25000 nM with HepG2 cells (HepG2 cells, IC50 per ratio column head, unit inferred); 0.31 µM in data set [2] (setting [8]); 0.312 µM in [2] (setting [9]); 300 nM in data set [3].

As for `CC(C)c1ccc(NC(=S)NN=Cc2ccccn2)cc1` [TCMDC-125520], the “Ratio IC50 HepG2/IC50 P. falciparum” value (in [1]; in the data set with HepG2 cells) was over 1306 in each case. Moreover, the IC50 is under 0.0098 µM in data set [1] (setting [10]), 0.72 µM in data set [2] (setting [8]), 0.724 µM in [2] (setting [9]) and 9.8 nM in data set [3]. Besides, the IC50 at 48 h was 13 µM in [4] (HepG2, 48 h exposure, intracellular ATP, read-out: IC50 (μM) Cytotoxicity HepG2) and 12.8 µM in data set [4] (setting [11]).

Consider `Cc1ccccc1N1CCN(c2ccc(C(=O)NC3CC3)cn2)CC1` [TCMDC-134578], for which, in [5], the “% Inhibition” value is reported as 39.4%.

For the molecule `Clc1ccc(Nc2nc(-c3ccccn3)cs2)nc1` [TCMDC-123885], the figures for the IC50 in [1] (setting [10]), in data set [2] (setting [8]) and in data set [2] (setting [9]) were 0.67 µM, 0.77 µM and 0.774 µM, respectively. In data set [6], the “% Control luminiscence” value was found to be 100%. The “reported as inhibitors of KCa2.2” value in [7] is “inhibitors”.

`O=C(Nc1nc(-c2ccccn2)cc2ccccc12)c1cccc(Cl)c1` [TCMDC-123886]: the “Ratio IC50 HepG2/IC50 P. falciparum” value (in [1]; with HepG2 cells) was over 50 throughout. The IC50 in data set [1] (setting [10]) was 0.5 µM; in data set [1] (setting [12]) it was 0.497 µM; in data set [2] (setting [8]), 0.75 µM; in [2] (setting [9]) it was 0.754 µM. Besides, the “% Control luminiscence” value in data set [6] turned out to be 100%. Further, the IC50 at 48 h in data set [4] (setting [11]) is over 25 µM. Also, the “reported as an adenosine A3 receptor ligand” value in the data set on adenosine A3 receptor is “ligand”.

`Cc1ccnc(Nc2nc(-c3ccccn3)cs2)c1` [TCMDC-125769]: the IC50 in [1] (setting [10]) is 0.0433 µM; in data set [1] (Plasmodium falciparum, gametocytes (GC), value as repeated in the Clusters sheet, read-out: IC50 GC), 0.04 µM; in [1] (setting [12]) it was 0.043 µM; in data set [2] (setting [8]) it was 1 µM; in data set [2] (setting [9]) it was 0.998 µM. In addition, the “reported as inhibitors of KCa2.2” value in data set [7] is “inhibitors”.

Turning to `NC(=O)c1ccccc1Nc1nc(Nc2ccn[nH]2)ncc1Cl` [TCMDC-134169], in data set [5], the “% Inhibition” value is given as -47.65%.
